Measurements from US11866695B2, “Methods and systems and related compositions for mixtures separation with a solid matrix” (CALIFORNIA INSTITUTE OF TECHNOLOGY, priority 2019, dated 2024).
Like-named read-outs stand apart in the source and are kept apart here.

Legend:
[1] = cited from earlier work
λ phage DNA = assay: Zymo Quick-Viral DNA/RNA kit extraction with additional TPW, LAMP with 2× diluted eluent; format: biochemical
Procedure: LAMP reactions contained the following concentrations of reagents: 1× Isothermal Amplification Buffer (20 mM Tris-HCl pH 8.8, 10 mM (NH4)2SO4, 50 mM KCl, 5 mM MgSO4, 0.1% Tween-20, B0537S, NEB, Ipswich, Mass., USA), an additional 2 mM MgSO4 (B1003S, NEB), 1.4 mM deoxynucleotide mix (N0447L or N0446S, NEB), […] Invitrogen Syto-9 (S34854, Thermo Fisher Scientific), […] Invitrogen bovine serum albumin (15561020, Thermo Fisher Scientific), 320 U/mL WarmStart Bst 2.0 (M0538L, NEB), and were supplemented with nuclease-free water (not DEPC-Treated, 4387936, Thermo Fisher Scientific) up to 10 μL. LAMP primers (Integrated DNA Technologies (IDT), Coralville, Iowa, USA) were designed, ordered, and added at NEB's recommended concentrations of […] FIP/BIP, 0.2μM F3/B3, and […] LoopF/B.
Each 96-well plate was sealed and briefly spun. Heating and real-time imaging were performed on the Bio-Rad CFX-96 Touch Real-Time PCR Detection System (1855195, Bio-Rad). Each 96-well plate was cooled to 12° C. for 2 min, held at 68° C. for 47 min with 35-second fluorescence read intervals, and a melt-curve analysis was performed. For the E. coli DNA dilution experiment, the 68° C. step was held for 105 min. Time-to-positive (TTP) was determined when the software's automated baseline corrected fluorescence reached 1000 RFU.
Three different silica-column kits were tested, including: Zymo ZR Viral DNA/RNA Kit (outdated protocol, D7021), Zymo Quick-DNA/RNA Kit (updated protocol, D7021), and the QIAquick PCR Purification Kit (28104, Qiagen). For all silica-column kits, fresh collection tubes were used after each spin and centrifugation speeds were set to 16,000×g. Centrifugation was performed on either an Eppendorf 5415D centrifuge (Eppendorf, Hauppauge, N.Y., USA) or a Thermo Fisher Scientific AccuSpin Micro 17R centrifuge (13-100-676). It was noted that the QIAquick protocol calls for 17,900×g, but instead was run at 16,000×g which was the max speed for the Eppendorf 5415D. […]

[2] = tested on: qPCR spiked with 5×104 copies λ phage DNA; format: biochemical; conditions: 1 μL candidate in 11 μL total; for Avg Cq: N.D. = not detected within 40 cycles; for ΔCq: minus the No additive control
Procedure: Heating and real-time imaging were performed on the Bio-Rad CFX-96 Touch Real-Time PCR Detection System by heating to 95° C. for 5 min, cycling 40 times between 95° C. for 15 s, 60° C. for 15 s, and 72° C. for 20 s, and taking a melt-curve analysis. For the E. coli DNA dilution experiment, qPCR was run for 60 cycles. Fluorescence readings were taken at the end of each extension step. Quantification cycle (Cq) was determined when the software's automated baseline corrected fluorescence reached 200 RFU.
Criterion 1a was investigated directly by performing qPCR and LAMP reactions. Reactions were spiked with λ phage DNA, diluted up to 10 μL, and an additional 1 μL of different wash buffer candidates was added to a total of 11 μL. […] As an experimental control, a “No Additive” condition was tested, which was a 10 μL reaction with optimized reaction conditions and no inhibitors. To control for the effects of a 1 μL dilution on the reaction, a “Water” condition which was an 11 μL reaction with no inhibitors was also tested.

SMILES	Solubility of TPW Candidate in water [1] [g/100 mL]	Solubility of water in TPW Candidate [1] [g/100 g]	reduction in TTP vs manufacturer protocol (λ phage DNA; 2× eluent dilution) [min]	TTP (λ phage DNA; 2× eluent dilution, 3 columns) [min]	TTP (λ phage DNA; all 27 wells) [min]	Avg Cq [2] [cycles]	ΔCq [2] [cycles]	Solubility of TPW Candidate in water ([1]; in words)	Solubility of water in TPW Candidate ([1]; in words)
CCCCCCCCCCCO [1-undecanol]	0.0015	3.4	0.78	6.00 ± 0.04	10.23 ± 0.06	19.67	−0.42		
CCO [Ethanol, ethanol]						25.30	5.21	Miscible	Miscible
